Results on three compounds are retold here after patent EP4617282A1, “MEMBRANE FUSION INHIBITOR FOR […] VIRUS AND DRUG-RESISTANT STRAIN THEREOF, AND PHARMACEUTICAL USE THEREOF” (Institute Of Pathogen Biology, Chinese Academy Of Medical …, priority 2022, dated 2024).

The IC50 is the midpoint of a concentration-inhibition curve. A low value points to greater potency.

SMILES strings stand for the structures. Residues, ends and D or L forms follow the SMILES beside them. *: point of attachment. Succinyl(4-O-cholesteryl) = CC(C)CCC[C@@H](C)[C@H]1CC[C@H]2[C@@H]3CC=C4C[C@@H](OC(=O)CCC(=O)*)CC[C@]4(C)[C@H]3CC[C@]12C

In one test the test system is HIV-1NL4-3 pseudovirus. The class given is cell-based. As to conditions: TZM-b1 cells, 100 TCID50, 48 hours. The text has this:
(§1) HIV-1JRFL Env expression vectors and backbone plasmas (pSG3 ΔEnv) and TZM-bl cells were described in the following literature: Xue, J., Chong, H., Zhu, Y, Zhang, J., Tong, L., Lu, J., Chen, T., Cong, Z., Wei, Q., He, Y., 2022. Efficient treatment and pre-exposure prophylaxis in rhesus macaques by an HIV fusion-inhibitory lipopeptide. Cell 185, 131-144 e118. The HIV-1JRFL Env expression vector and the backbone plasmas (pSG3 ΔEnv) were co-transfected into HEK293T cells, and the transfected cells were cultured in a cell culture incubator at 37 °C and 5% CO2 for 48 hours, and then the supernatant was collected and filtered to collect the filtrate. The resulting filtrate was a virus solution containing HIV-1JRFL pseudovirus particles (called as HIV-1JRFL virus solution), which was preserved at -80 °C for later use.
The preparation method of the HIV-1NL4-3 virus solution (i.e., the virus solution containing HIV-1NL4-3 pseudovirus particle) was basically the same as that of the HIV-1JRFL virus liquid, except that the HIV-1JRFL Env expression vector was replaced with HIV-1NL4-3 Env expression vector. […]
Test virus solution: HIV-1NL4-3 virus solution or HIV-1JRFL virus solution. • 1. […] Relative luminescence units (RLU) were measured by a microplate luminometer, an inhibition rate curve was made, and the half-maximal inhibition concentration (IC50) of the drug was calculated. […]

For a further test, the system named is HIV-1JRFL pseudovirus. The class given is cell-based. As to conditions: TZM-b1 cells, 100 TCID50, 48 hours.
From the text: as §1
Test virus solution: HIV-1NL4-3 virus solution or HIV-1JRFL virus solution. • 1. A test lipopeptide was dissolved in deionized water and then diluted with DMEM medium (using 3-fold dilution) to obtain a lipopeptide diluent. 9 dilutions were set for each test lipopeptide. • 2. In a 96-well plate, the lipopeptide diluent (50 µL/well) was added to drug wells and the DMEM medium (50 µL/well) was added to control wells. Each well was set with three duplicate wells. • 3. After step 2 was finished, a test virus solution (50 µL/well, a virus content of 100 TCID50) was added to the 96-well plate and incubated at room temperature for 30 minutes. • 4. After step 3 was finished, a TZM-b1 cell suspension (100 µL/well) was added to the 96-well plate and cultured for 48 hours in a cell culture incubator at 37 °C and 5% CO2. Preparation method of the TZM-b1 cell suspension: TZM-b1 cells were re-suspended in a DMEM medium and DEAE-dextran was added thereto such that the cell concentration was 10×10^4 cells/mL and the DEAE-dextran concentration was 15 µg/mL. • 5. […] Relative luminescence units (RLU) were measured by a microplate luminometer, an inhibition rate curve was made, and the half-maximal inhibition concentration (IC50) of the drug was calculated. […]

Regarding `CC[C@H](C)[C@H](NC(=O)[C@H](CCCCN)NC(=O)[C@H](CCC(N)=O)NC(=O)[C@H](CCC(=O)O)NC(=O)[C@H](Cc1ccc(O)cc1)NC(C)=O)C(=O)N[C@@H](CCC(=O)O)C(=O)N[C@@H](CCC(=O)O)C(=O)N[C@@H](CC(C)C)C(=O)N[C@@H](CC(C)C)C(=O)N[C@@H](CCCCN)C(=O)N[C@@H](CCCCN)C(=O)N[C@@H](C)C(=O)N[C@@H](CCC(=O)O)C(=O)N[C@@H](CCC(=O)O)C(=O)N[C@@H](CCC(N)=O)C(=O)N[C@@H](CCC(N)=O)C(=O)N[C@@H](CCCCN)C(=O)N[C@@H](CCCCN)C(=O)N[C@@H](CC(N)=O)C(=O)N[C@@H](CCC(=O)O)C(=O)N[C@@H](CCC(=O)O)C(=O)N[C@@H](CCC(=O)O)C(=O)N[C@@H](CC(C)C)C(=O)N[C@@H](CCCCN)C(=O)N[C@@H](CCCCN)C(=O)N[C@@H](CC(C)C)C(=O)N[C@@H](CCC(=O)O)C(=O)N[C@@H](CCCCNC(=O)CCC(=O)O[C@H]1CC[C@@]2(C)C(=CC[C@H]3[C@@H]4CC[C@H]([C@H](C)CCCC(C)C)[C@@]4(C)CC[C@@H]32)C1)C(N)=O` [LP-98, reference compound] (Ac-YEQKIEELLKKAEEQQKKNEEELKKLEK(Succinyl(4-O-cholesteryl))-NH2), the IC50 is 1.07 pM with HIV-1NL4-3 pseudovirus and 2.58 pM with HIV-1JRFL pseudovirus. In turn, `CC[C@H](C)[C@H](NC(=O)[C@H](CCC(=O)O)NC(C)=O)C(=O)N[C@@H](CCC(=O)O)C(=O)N[C@@H](CCC(=O)O)C(=O)N[C@@H](CC(C)C)C(=O)N[C@@H](CCC(=O)O)C(=O)N[C@@H](CCCCN)C(=O)N[C@@H](CCCCN)C(=O)N[C@H](C(=O)N[C@@H](CCC(=O)O)C(=O)N[C@@H](CCC(=O)O)C(=O)N[C@@H](CC(C)C)C(=O)N[C@@H](CC(C)C)C(=O)N[C@@H](CCCCN)C(=O)N[C@@H](CCCCN)C(=O)N[C@@H](C)C(=O)N[C@@H](CCC(=O)O)C(=O)N[C@@H](CCC(=O)O)C(=O)N[C@@H](CCC(N)=O)C(=O)N[C@@H](CCC(N)=O)C(=O)N[C@@H](CCCCN)C(=O)N[C@@H](CCCCN)C(=O)N[C@@H](CC(N)=O)C(=O)N[C@@H](CCC(=O)O)C(=O)N[C@@H](CCC(=O)O)C(=O)N[C@@H](CCC(=O)O)C(=O)N[C@@H](CC(C)C)C(=O)N[C@@H](CCCCN)C(=O)N[C@@H](CCCCN)C(=O)N[C@@H](CC(C)C)C(=O)N[C@@H](CCC(=O)O)C(=O)N[C@@H](CCCCNC(=O)CCC(=O)O[C@H]1CC[C@@]2(C)C(=CC[C@H]3[C@@H]4CC[C@H]([C@H](C)CCCC(C)C)[C@@]4(C)CC[C@@H]32)C1)C(N)=O)[C@@H](C)CC` [LP-101] (Ac-EIEELEKKIEELLKKAEEQQKKNEEELKKLEK(Succinyl(4-O-cholesteryl))-NH2) came in with an IC50 in the test on HIV-1JRFL pseudovirus of 2.26 pM. Consider `CC[C@H](C)[C@H](NC(=O)[C@H](CCCCN)NC(=O)[C@H](CCCCN)NC(=O)[C@H](CCC(=O)O)NC(=O)[C@H](Cc1c[nH]c2ccccc12)NC(=O)[C@H](CCC(=O)O)NC(=O)[C@H](CCC(=O)O)NC(=O)[C@H](Cc1c[nH]c2ccccc12)NC(C)=O)C(=O)N[C@@H](CCC(=O)O)C(=O)N[C@@H](CCC(=O)O)C(=O)N[C@@H](CC(C)C)C(=O)N[C@@H](CCC(=O)O)C(=O)N[C@@H](CCCCN)C(=O)N[C@@H](CCCCN)C(=O)N[C@H](C(=O)N[C@@H](CCC(=O)O)C(=O)N[C@@H](CCC(=O)O)C(=O)N[C@@H](CC(C)C)C(=O)N[C@@H](CC(C)C)C(=O)N[C@@H](CCCCN)C(=O)N[C@@H](CCCCN)C(=O)N[C@@H](C)C(=O)N[C@@H](CCC(=O)O)C(=O)N[C@@H](CCC(=O)O)C(=O)N[C@@H](CCC(N)=O)C(=O)N[C@@H](CCC(N)=O)C(=O)N[C@@H](CCCCN)C(=O)N[C@@H](CCCCN)C(=O)N[C@@H](CC(N)=O)C(=O)N[C@@H](CCC(=O)O)C(=O)N[C@@H](CCC(=O)O)C(=O)N[C@@H](CCC(=O)O)C(=O)N[C@@H](CC(C)C)C(=O)N[C@@H](CCCCN)C(=O)N[C@@H](CCCCN)C(=O)N[C@@H](CC(C)C)C(=O)N[C@@H](CCC(=O)O)C(=O)N[C@@H](CCCCNC(=O)CCC(=O)O[C@H]1CC[C@@]2(C)C(=CC[C@H]3[C@@H]4CC[C@H]([C@H](C)CCCC(C)C)[C@@]4(C)CC[C@@H]32)C1)C(N)=O)[C@@H](C)CC` [LP-104] (Ac-WEEWEKKIEELEKKIEELLKKAEEQQKKNEEELKKLEK(Succinyl(4-O-cholesteryl))-NH2), for which the results for the IC50 with HIV-1NL4-3 pseudovirus and with HIV-1JRFL pseudovirus were 14.5 pM and 60.2 pM, respectively.
